Laboratory results: patent US20040076659A1, “Additive for livestock feeds” (priority 1994, published 2004)

Assays:
dairy cows = assay: Two levels of Tween 80, milk production and feed intake in cows under heat stress (Example 5); assay type: in vivo, Holstein; details: for Drop in milk production: week 11 (heat stress)
From the text: Seventy-five dairy cows of the Holstein breed were ranked according to lactation number, days in milk and production level and placed into three equal groups. Treatments were then randomly assigned to individual animals within the groups. There were 25 animals in each dietary treatment group. Cows were offered ad libitum access to a total mixed ration (TMR) based on grass silage, corn silage, grass hay and a commercial dairy concentrate. The treatments consisted of:
Treatment 1—Control diet (TMR).
Treatment 2—TMR containing 0.2% (w/w) Tween 80, and
Treatment 3—TMR containing 0.3% (w/w) Tween 80.
The experiment lasted 12 weeks. All cows were fed the control diet during the first week. This period served as a pretrial week. Cows in each treatment group were then fed their experimental diets for ten weeks. Milk production and feed intake were, monitored from the first week (pretrial) until the 12th week (one week after the experimental diets were withdrawn).
Ambient temperatures exceeded 40° C. during weeks 10 and 11 of the experiment resulting in considerable heat stress in the cows. Milk production and feed intake data are discussed in the light of the heat stress.

rumen cellulase activity = assay: In vitro cellulose degradation by rumen bacterial inoculum; assay type: biochemical, cows; details: 0.25% surfactant in reaction mixture; regression on initial 24 hr
Protocol: A bacterial fraction, largely free of protozoa, was prepared for the fermentation assays by using the procedure of Forsberg, “Some Effects of Arsenic on the Rumen Microflora; An In Vitro Study,” Can. J. Microbiol. 24:36 (1978). The digesta inoculum was resuspended and washed twice in an equivalent amount of 0.1 M phosphate buffer pH 6.8 to the rumen fluid. The inoculum provided both, the substrate and the enzyme used for cellulose degradation assay. Incubation periods were 0, 1.5, 3, 6, 12, 24, and 48 hr. Other incubation conditions were similar to those outlined in experiment 1 above. However, cellulose was determined by the method of Updergraff, supra, for the in vivo digestibility trial. The optimal level of Tween 80 obtained was adopted here and followed.

wethers = assay: In vivo digestibility trial, timothy hay sprayed with Tween 80; details: sheep; about 0.3% Tween 80 in the ration
Protocol: Four […] weighing (72.5±15.0 kg) fitted with both rumen and duodenal cannula, were offered chopped medium quality timothy hay ad libitum. The hay was either sprayed with 500 ml water or 50 ml of […] dissolved in 500 ml of water. The feed was offered in two equal portions, at 08:30 and 20:30 hr. Water was available ad libitum. The experiment was designed as a 2×2 latin square with two 14-day adaptation, two 7-day collection periods. Estimates of the rates of passage of the two treated hays were made using chromium mordanted fibre (Cr) for the particulate phase and cobalt-ethylene diaminetetracetic acid (Co-EDTA) for the liquid phase. The method of Uden et al., “Investigation of chromium, cerium and cobalt as markers in digesta: Rate of Passage studies,” J. Sci. of Food and Agriculture 31:625-632 (1980), was used in the preparation of both markers. The sheep were adapted to the feed in individual pens, and then moved into digestibility cages for total collection and marker infusion. During the collection period, records of feed intake, faecal and urine output were maintained. 250 g subsamples of the faeces were collected daily, subsampled for DM determination, while the rest was dried under a drought oven. Urine was collected under 1N sulphuric acid. On the last day of the collection period, each sheep was given 50 g of Cr-mordanted fibre 1 hr prior to the evening feeding. In addition, 250 ml of Co-EDTA (0.1 g/ml) was infused intraruminally and the animals were then fed. Rumen digesta and duodenal sampling commenced 4 hr after dosing and continued at the same interval for 96 hr. Two samples of rumen fluid were collected: The first rumen fluid samples (30 ml) were preserved for microbial protein estimations by adding 7.5 ml of 0.9% NaCl in 37% formaldehyde solution. The samples were then stored at -20° C. after the preparation of a bacterial pellet by centrifugation at 27,000 g max for 15 min. A portion of the second rumen fluid and faecal samples was dried at 80° C. and ground in a coffee grinder (Braun, Inc. MA) for DM and Cr determination (Uden et al., 1980). Cr concentration in the samples was determined in duplicate by atomic absorption spectrophotometer (Perkin Elmer 560) using Cr standards (Fisher Scientific Co. NJ). The rest of the second rumen fluid sample was centrifuged at 10,000 g max for 10 min and the supernatants analyzed directly for cobalt using 0.1N HCL as the blank. Standards were prepared using cobalt chloride (Fisher Scientific Co. NJ). Marker concentrations were expressed per gram of dry sample. Other analyses included: acid and neutral detergent fibre (Goering and Van Soest, “Forage fiber analysis,” Agric. Handbook No. 379, p. 12 (1970)), total N (Parkinson and Allen, “A wet oxidation procedure suitable for the determination of nitrogen and mineral nutrients in biological materials,” Comm. Soil Sci. Plant Anal. 6:1 (1975)) for RNA concentrations of the rumen bacterial pellets and duodenal samples.

[1] = Griffin et al., 1972; cited from earlier work
Red Angus steers = assay: Performance of feedlot cattle, 119 days (Example 6); assay type: in vivo
Protocol: Three hundred and twenty six Red Angus steers were stratified by weight and divided into eight pens. The pens were then randomly assigned to one of the following four dietary treatments:
3) 0.2% (wt/wt) glycanase enzyme (enzyme)
The enzyme is marketed by GNC Bioferm Inc., Saskatoon, SK. The product contained the following activities (expressed as nmol of reducing sugars released from 1 mg of product per min: xylanase (336.6), β-glucanase (196.0), carboxymethylcellulase (44.4), and amylase (46.3). The basal diet was a total mixed ration consisting of rolled barley, corn silage and canola meal. Tween 80 was diluted with tap water (1 in 5) before it was applied. The total amount of feed required each day for the animals on each treatment was weighed separately in a mixer wagon and the appropriate quantity of Tween 80, enzyme, or their combination applied to it and mixed for ten minutes before feeding. An equal volume of water as applied to the Tween 80 treatment was also applied to the control and enzyme treatment to make the moisture content of the four experimental diets equal. The experimental diets were fed for a total of 119 days. Individual body weights were taken at the beginning and end of the experiment. Group body weights were taken at monthly intervals.

[2] = first calf heifers, 0.2% Tween 80, second week of heat stress

Initial rate of cellulose degradation (rumen cellulase activity): 1.04c (0.32) μg/ml/hr
Substance: polyoxyethylene sorbitan monoleate [Tween 80]
Weight gain (dairy cows; 0.2% Tween 80, first 30 d): 1 kg | Depression in dry matter intake (dairy cows; 0.2% Tween 80, first week of heat stress): 3.4% | Weight gain (dairy cows; 0.2% Tween 80, last 60 days): 9 kg | Depression in dry matter intake (dairy cows; 0.2% Tween 80, second week of heat stress): 14.4% | Drop in milk production (dairy cows; 0.2% Tween 80): 23.6% | Weight gain (dairy cows; 0.3% Tween 80, first 30 d): 2.5 kg | Depression in dry matter intake (dairy cows; 0.3% Tween 80, first week of heat stress): 6.0% | Weight gain (dairy cows; 0.3% Tween 80, last 60 days): 4.5 kg | Depression in dry matter intake (dairy cows; 0.3% Tween 80, second week of heat stress): 12.6% | Drop in milk production (dairy cows; 0.3% Tween 80): 22% | Fall in milk production (dairy cows; Tween 80 treatments (0.2 and 0.3%), first week of heat stress (week 10)): about 11% | More milk than control, on average (dairy cows; first calf heifers, 0.2% Tween 80): 2 kg/day | Increase in milk over control (dairy cows; [2]): 13.6% | More milk than control (dairy cows; [2]): more than 3.6 kg/day | More milk than control, on average (dairy cows; mature cows, 0.2% Tween 80): 3.54 kg/day | More milk than control, on average (dairy cows; mature cows, 0.3% Tween 80): 3.98 kg/day | Digestibility, Acid detergent fibre (wethers): 52.68b (0.4) % | Digestibility, Crude protein (wethers): 61.25b (0.5) % | Digestibility, Dry matter (wethers): 64.70b (0.8) % | Digestibility, Neutral detergent fibre (wethers): 60.63b (0.7) % | Increase in digestibility compared to control (wethers): 18% | Increase in intake compared to control (wethers): 5% | Intake (wethers): 2.06b (0.1) % of the body weight | HLB (hydrophile-lipophile balance) [1]: 15 | Average Daily Gain (Red Angus steers; 0.1% Tween 80): 1.69a kg/d | Average daily gain higher than control (Red Angus steers; 0.1% Tween 80): 6.3% | Feed Efficiency (Gain/Feed) (Red Angus steers; 0.1% Tween 80): 0.166 | More weight gained than animals on the control diet (Red Angus steers; 0.1% Tween 80): approximately 5.8% | Total Weight Gain (Red Angus steers; 0.1% Tween 80 (dry matter basis)): 219.03a kg
